According to patent publication US20040087604A1, “Hetero-tricyclic compounds having substituted amino groups” (priority 2001, published 2004):

Tested on: IgE production against ovalbumin (OVA)
Test: Suppressive effect on the IgE production against ovalbumin (OVA); anti-OVA IgE antibody titer (PCA titer)
Assay type: in vivo
Settings: BALB/c mice immunized with OVA; oral dose 40 mg/kg for 10 days; titer = n where serum PCA-positive till 2^n dilution
Procedure: Suppressive Effect on the IgE Production Against Ovalbumin (OVA)
BALB/c mice (female, 8-10 weeks old) and Wistar rats (female, 8-10 weeks old) which were bought from Japan SLC, Inc. (Shizuoka) were used.
BALB/c mice were immunized by an intraperitoneal administration of 0.2 ml suspension of 2 μg of ovalbumin (OVA) and 2 mg of aluminium hydroxide gel in physiological saline. After 10 days, blood was collected from hearts, then sera were separated and stocked at −40° C. till the measurement of IgE antibody titer.
After the compound of the present invention was dissolved or suspended in N,N-dimethylacetoamide, the mixture was diluted 20 times with miglyol 812 neutral oil. The obtained solution was orally administered to mice at 0.1 ml per mouse (dose 40 mg/kg). The administration was continued for 10 days from the immunizing day to the day before the blood collection.
4) Mesurement of Anti-OVA IgE Antibody Titer (PCA Titer)
The obtained mouse serum was 2-fold diluted with physiological saline, then each 50 μl the solution was intradermally injected at dorsal skin of Wistar rats which previously hair cut. […] The rats were sacrified 30 minutes later and the highest dilution giving bluing with a diameter of 5 mm or more was recorded as the PCA titer. […]

For Cc1c(C)c(-c2ccc(NC(C)C)nc2)c(C)c(C)c1-c1ccc(NC(C)C)nc1 [Compound 169], the “PCA (anti-OVA IgE antibody titer, PCA titer)” value was <0.
